In US7704995B2 (Exelixis, Inc., priority 2003, dated 2010):

Target: T1, Chk1 (Homo sapiens, UniProt O14757)
T1 construct: purchased Upstate Biotechnology
T1 sequence (O14757 1-476): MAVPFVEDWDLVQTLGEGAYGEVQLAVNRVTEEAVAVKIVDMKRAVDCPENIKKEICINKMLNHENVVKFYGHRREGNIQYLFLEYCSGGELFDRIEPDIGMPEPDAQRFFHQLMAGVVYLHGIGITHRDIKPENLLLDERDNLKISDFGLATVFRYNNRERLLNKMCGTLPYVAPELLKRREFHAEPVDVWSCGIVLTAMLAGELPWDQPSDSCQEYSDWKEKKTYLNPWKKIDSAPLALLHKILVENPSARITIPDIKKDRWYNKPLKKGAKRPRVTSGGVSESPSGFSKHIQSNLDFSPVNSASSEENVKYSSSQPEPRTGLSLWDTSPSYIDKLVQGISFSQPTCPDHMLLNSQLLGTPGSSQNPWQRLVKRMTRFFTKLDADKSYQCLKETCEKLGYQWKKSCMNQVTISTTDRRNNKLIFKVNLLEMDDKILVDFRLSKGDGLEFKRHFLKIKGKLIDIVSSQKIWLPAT
Assay: Chk1 kinase assay: incorporation of γ-33P ATP into immobilized myelin basic protein
Type: biochemical
Conditions: read-out: Chk1 IC50
Procedure, shortened: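 Enzyme activity is measured as γ-33P transfer from ATP onto immobilized MBP over 1 h at room temperature, with Chk1 at 10 nM/10 μM unlabeled ATP and Chk2 at 20 nM/30 μM unlabeled ATP. Compounds are tested in 1% DMSO.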

| Structure (SMILES) | IC50 |
| --- | --- |
| CNC(=O)c1nc(-c2cccc(OCCN3CCN(C)CC3)c2)cnc1N [Example 192, 3-amino-N-methyl-6-(3-{[2-(4-methylpiperazin-1-yl)ethyl]oxy}phenyl)pyrazine-2-carboxamide] | 50 to 1000 nM |
| CNC(=O)c1nc(-c2cccc(OCCN3CCN(CCO)CC3)c2)cnc1N [Example 193, 3-amino-6-[3-({2-[4-(2-hydroxyethyl)piperazin-1-yl]ethyl}oxy)phenyl]-N-methylpyrazine-2-carboxamide] | 50 to 1000 nM |
| CNC(=O)c1nc(-c2cccc(OCCN3CCc4ccccc4C3)c2)cnc1N [Example 194, 3-amino-6-(3-{[2-(3,4-dihydroisoquinolin-2(1H)-yl)ethyl]oxy}phenyl)-N-methylpyrazine-2-carboxamide] | 50 to 1000 nM |
| CCOC(=O)N1CCN(CCOc2cccc(-c3cnc(N)c(C(=O)NC)n3)c2)CC1 [Example 195, ethyl 4-{2-[(3-{5-amino-6-[(methylamino)carbonyl]pyrazin-2-yl}phenyl)oxy]ethyl}piperazine-1-carboxylate] | 1000 to 10000 nM |
| CNC(=O)c1nc(-c2cccc(C(=O)N[C@H]3CCN(Cc4ccccc4)C3)c2)cnc1N [Example 196, 3-amino-N-methyl-6-[3-({[(3S)-1-(phenylmethyl)pyrrolidin-3-yl]amino}carbonyl)phenyl]pyrazine-2-carboxamide] | 50 to 1000 nM |
| CNC(=O)c1nc(-c2cccc(C(=O)N[C@@H]3CCN(Cc4ccccc4)C3)c2)cnc1N [Example 197, 3-amino-N-methyl-6-[3-({[(3R)-1-(phenylmethyl)pyrrolidin-3-yl]amino}carbonyl)phenyl]pyrazine-2-carboxamide] | 50 to 1000 nM |
| CNC(=O)c1nc(-c2cccc(C(=O)NCCOc3ccccc3)c2)cnc1N [Example 198, 3-amino-N-methyl-6-[3-({[2-(phenyloxy)ethyl]amino}carbonyl)phenyl]pyrazine-2-carboxamide] | 50 to 1000 nM |
| CNC(=O)c1nc(-c2cccc(C(=O)NCCN3CCN(Cc4ccccc4)CC3)c2)cnc1N [Example 199, 3-amino-N-methyl-6-{3-[({2-[4-(phenylmethyl)piperazin-1-yl]ethyl}amino)carbonyl]phenyl}pyrazine-2-carboxamide] | 50 to 1000 nM |
| CNC(=O)c1nc(-c2cccc(C(=O)NCC3CCN(Cc4ccccc4)CC3)c2)cnc1N [Example 200, 3-amino-N-methyl-6-{3-[({[1-(phenylmethyl)piperidin-4-yl]methyl}amino)carbonyl]phenyl}pyrazine-2-carboxamide] | ≥ 10000 nM |
| CNC(=O)c1nc(-c2cccc(C(=O)NCc3ccoc3)c2)cnc1N [Example 201, 3-amino-6-(3-{[(furan-3-ylmethyl)amino]carbonyl}phenyl)-N-methylpyrazine-2-carboxamide] | 50 to 1000 nM |
| CNC(=O)c1nc(-c2cccc(C(=O)NCC3COc4ccccc4O3)c2)cnc1N (stereo not shown) [Example 202, 3-amino-6-(3-{[(2,3-dihydro-1,4-benzodioxin-2-ylmethyl)amino]carbonyl}phenyl)-N-methylpyrazine-2-carboxamide] | 50 to 1000 nM |
| CNC(=O)c1nc(-c2cccc(C(=O)NCc3ccco3)c2)cnc1N [Example 203, 3-amino-6-(3-{[(furan-2-ylmethyl)amino]carbonyl}phenyl)-N-methylpyrazine-2-carboxamide] | 50 to 1000 nM |
| CNC(=O)c1nc(-c2cccc(C(=O)NCC3CN(Cc4ccccc4)CCO3)c2)cnc1N (stereo not shown) [Example 204, 3-amino-N-methyl-6-{3-[({[4-(phenylmethyl)morpholin-2-yl]methyl}amino)carbonyl]phenyl}pyrazine-2-carboxamide] | 50 to 1000 nM |
| CNC(=O)c1nc(-c2cccc(C(=O)NCc3ccc4c(c3)OCCO4)c2)cnc1N [Example 205, 3-amino-6-(3-{[(2,3-dihydro-1,4-benzodioxin-6-ylmethyl)amino]carbonyl}phenyl)-N-methylpyrazine-2-carboxamide] | < 50 nM |
| CNC(=O)c1nc(-c2cccc(C(=O)NCc3ccc4c(c3)CCO4)c2)cnc1N [Example 207, 3-amino-6-(3-{[(2,3-dihydro-1-benzofuran-5-ylmethyl)amino]carbonyl}phenyl)-N-methylpyrazine-2-carboxamide] | 50 to 1000 nM |
| CNC(=O)c1nc(-c2cccc(C(=O)NCc3cc(F)cc4c3OCOC4)c2)cnc1N [Example 208, 3-amino-6-[3-({[(6-fluoro-4H-1,3-benzodioxin-8-yl)methyl]amino}carbonyl)phenyl]-N-methylpyrazine-2-carboxamide] | 50 to 1000 nM |
| CNC(=O)c1nc(-c2cccc(NC(=O)Cc3ccc(Cl)cc3Cl)c2)cnc1N [Example 209, 3-amino-6-(3-{[(2,4-dichlorophenyl)acetyl]amino}phenyl)-N-methylpyrazine-2-carboxamide] | < 50 nM |

| Structure (SMILES) | IC50 |
| --- | --- |
| CNC(=O)c1nc(-c2cccc(NC(=O)Cc3ccc(Cl)c(Cl)c3)c2)cnc1N [Example 210, 3-amino-6-(3-{[(3,4-dichlorophenyl)acetyl]amino}phenyl)-N-methylpyrazine-2-carboxamide] | 50 to 1000 nM |
| CNC(=O)c1nc(-c2cccc(NC(=O)Cc3ccc(C(F)(F)F)cc3)c2)cnc1N [Example 211, 3-amino-N-methyl-6-[3-({[4-(trifluoromethyl)phenyl]acetyl}amino)phenyl]pyrazine-2-carboxamide] | 50 to 1000 nM |
| CNC(=O)c1nc(-c2cccc(C(=O)NCc3cc(C)cc(C)c3)c2)cnc1N [Example 212, 3-amino-6-[3-({[(3,5-dimethylphenyl)methyl]amino}carbonyl)phenyl]-N-methylpyrazine-2-carboxamide] | 50 to 1000 nM |
| CNC(=O)c1nc(-c2cccc(C(=O)NCc3cc(Cl)ccc3C)c2)cnc1N [Example 213, 3-amino-6-[3-({[(5-chloro-2-methylphenyl)methyl]amino}carbonyl)phenyl]-N-methylpyrazine-2-carboxamide] | 50 to 1000 nM |
| CNC(=O)c1nc(-c2cccc(C(=O)NCc3ccc(C)cc3C)c2)cnc1N [Example 214, 3-amino-6-[3-({[(2,4-dimethylphenyl)methyl]amino}carbonyl)phenyl]-N-methylpyrazine-2-carboxamide] | 50 to 1000 nM |
| CNC(=O)c1nc(-c2cccc(C(=O)NCc3cccc(F)c3F)c2)cnc1N [Example 215, 3-amino-6-[3-({[(2,3-difluorophenyl)methyl]amino}carbonyl)phenyl]-N-methylpyrazine-2-carboxamide] | 1000 to 10000 nM |
| CNC(=O)c1nc(-c2cccc(C(=O)NCc3ccc(SC)cc3)c2)cnc1N [Example 216, 3-amino-N-methyl-6-{3-[({[4-(methylthio)phenyl]methyl}amino)carbonyl]phenyl}pyrazine-2-carboxamide] | < 50 nM |
| CNC(=O)c1nc(-c2cccc(C(=O)NCC(C)C)c2)cnc1N [Example 217, 3-amino-N-methyl-6-(3-{[(2-methylpropyl)amino]carbonyl}phenyl)pyrazine-2-carboxamide] | 1000 to 10000 nM |
| CNC(=O)c1nc(-c2cccc(C(=O)NCc3cccc(OC(F)(F)F)c3)c2)cnc1N [Example 218, 3-amino-N-methyl-6-(3-{[({3-[(trifluoromethyl)oxy]phenyl}methyl)amino]carbonyl}phenyl)pyrazine-2-carboxamide] | 1000 to 10000 nM |
| CNC(=O)c1nc(-c2cccc(C(=O)NCC3CC3)c2)cnc1N [Example 219, 3-amino-6-(3-{[(cyclopropylmethyl)amino]carbonyl}phenyl)-N-methylpyrazine-2-carboxamide] | 50 to 1000 nM |
| CNC(=O)c1nc(-c2cccc(C(=O)NC3CCCC3)c2)cnc1N [Example 220, 3-amino-6-{3-[(cyclopentylamino)carbonyl]phenyl}-N-methylpyrazine-2-carboxamide] | 1000 to 10000 nM |
| CNC(=O)c1nc(-c2cccc(C(=O)Nc3ccc(C)cc3)c2)cnc1N [Example 221, 3-amino-N-methyl-6-(3-{[(4-methylphenyl)amino]carbonyl}phenyl)pyrazine-2-carboxamide] | 1000 to 10000 nM |
| CNC(=O)c1nc(-c2cccc(C(=O)Nc3ccc(OC)cc3)c2)cnc1N [Example 222, 3-amino-N-methyl-6-[3-({[4-(methyloxy)phenyl]amino}carbonyl)phenyl]pyrazine-2-carboxamide] | 50 to 1000 nM |
| CNC(=O)c1nc(-c2cccc(C(=O)NCc3ccc4c(c3)OCO4)c2)cnc1N [Example 223, 3-amino-6-(3-{[(1,3-benzodioxol-5-ylmethyl)amino]carbonyl}phenyl)-N-methylpyrazine-2-carboxamide] | 50 to 1000 nM |
| CNC(=O)c1nc(-c2cccc(C(=O)NCc3cccc(-c4ccccc4)c3)c2)cnc1N [Example 224, 3-amino-6-(3-{[(biphenyl-3-ylmethyl)amino]carbonyl}phenyl)-N-methylpyrazine-2-carboxamide] | 50 to 1000 nM |
| CNC(=O)c1nc(-c2cccc(C(=O)NC(C)(C)c3ccccc3)c2)cnc1N [Example 225, 3-amino-N-methyl-6-(3-{[(1-methyl-1-phenylethyl)amino]carbonyl}phenyl)pyrazine-2-carboxamide] | 1000 to 10000 nM |
| CNC(=O)c1nc(-c2cccc(C(=O)NCc3ccc(F)cc3F)c2)cnc1N [Example 226, 3-amino-6-[3-({[(2,4-difluorophenyl)methyl]amino}carbonyl)phenyl]-N-methylpyrazine-2-carboxamide] | 50 to 1000 nM |
